Test results from PMC6130628, “Some pharmacokinetic parameters of salvianolic acid A following single-dose oral administration to rats” (Pharmaceutical Biology, 2018).
Where two headings read alike, the source gives them in different places.

What was measured:
[1] = Pharmacokinetic study in vivo (plasma, LC–MS, noncompartmental); conditions: both sexes, Sprague-Dawley, rat, rats; for MRT last: read-out: MRT0–t; for AUC(0-t) / Cmax: single dose
Experimental: Ninety-six healthy, intact Sprague-Dawley rats (male/female, 1/1, 185-215 g, Certificate No. SCXK 2006-0009) were purchased from Vital River Laboratories (Beijing, China). The rats were maintained in air-conditioned animal quarters with alternating 12 h light/dark cycles at a room temperature of 22 ± 2 °C and a relative humidity of 50 ± 10%. The rodents were given a commercial rat chow and water ad libitum. The experiment started after acclimation to the facilities for 7 days. All animal studies were conducted in accordance with “Principles of laboratory animal care” (NIH publication No. 85-23, revised 1985) and under protocols approved by the Ethic Committee of Laboratory Animals of the Affiliated Hospital of Qingdao University ([…] 2013-2-4-01). Rats were fasted overnight (∼12 h) and had free access to water throughout the experimental period. […] The doses applied in this study were determined according to, on the one hand, the doses applied in pharmacodynamic experiments in rats (Yang et al. [2011a]; Yang et al. [2011b]; Yu et al. [2012]; Hou et al. [2017]), and on the other hand, the results of our preliminary absorption experiments. The blood samples were taken crossly from the orbital sinus into tubes pretreated with heparin before dosing and subsequently at 0.083, 0.167, 0.25, 0.333, 0.5, 0.75, 1, 2, 4, 8, 12 and 24 h postdosing. After blood sampling, the samples were centrifuged at 4,500 rpm for 15 min at 4 °C to obtain 200 μL of plasma samples. These samples were immediately frozen and maintained at -80 °C until analysis. Plasma samples were thawed at room temperature before processing. To a 200 μL aliquot of plasma sample, 10 μL of VC (10 mg/mL) and 10 μL of the IS spiking solution (butyl paraben, 1 μg/mL) were added. Then, the mixture was acidified with 100 μL of 1 mol/L HCl and vortex-mixed with 800 μL of EtOAc for 3 min. […] EtOAc (800 μL) was added again to the lower aqueous phase and the extraction process was repeated. […] The residue was reconstituted in 100 μL of MeOH-H2O (50:50, v/v, containing VC 100 μg/mL). After centrifugation at 13,400 rpm for 5 min, 20 μL of the supernatant was injected to the LC-MS system. DAS pharmacokinetic software Data Analysis System Version 3.0 (Bontz Inc., Beijing, China) was used for pharmacokinetic analysis of Sal A concentrations. The noncompartmental model was applied for analysis of the data following intravenous and oral administration of Sal A. The peak plasma concentration (Cmax), the corresponding time (Tmax), the mean residence time (MRT) and the area under the concentration-time curve (AUC) could all be obtained. After intravenous and oral administration of Sal A to rats, plasma concentration was determined by LC-MS. The data obtained from each group was averaged. […] The oral bioavailability (F) was calculated by using AUCoral/dose divided by AUCiv/dose.

[2] = Bidirectional transport experiments in the Caco-2 cell culture model; assay type: in vitro ADME; conditions: human; for Papp A→B at 180 min: read-out: Papp Apical → basolateral; for Papp B→A at 180 min: read-out: Papp Basolateral → apical
Experimental: Caco-2 cells (passage number 34–36, American Type Culture Collection, Manassas, VA) were cultured at 37 °C in an atmosphere of 5% CO2 and 90% relative humidity in Dulbecco’s modified Eagle’s medium supplemented with 10% fetal bovine serum, 1% penicillin–streptomycin, 1% HEPES, 1% sodium pyruvate and 1% minimal essential medium nonessential amino acids. After harvesting at 90% confluence, the cells were seeded on to 0.4 μm polycarbonate membrane transwell inserts (12 mm diameter) at a density of 1.5 × 10^5 cells/cm^2. The culture media was changed every other day during the first 7 days after seeding and once a day thereafter. Cell monolayers were ready for experiments from 20 to 24 days postseeding.
Experiments in triplicate were performed in HBSS (pH =7.4).To ensure the stability of Sal A in HBSS, VC was applied in this study as stabilizer. The monolayers were washed three times with prewarmed HBSS (37 °C) before use. The integrity of the Caco-2 monolayers was monitored by measuring the transepithelial electrical resistance, and only monolayers with values ≥400 Ω/cm^2 were used. The monolayers were incubated with HBSS at 37 °C for 30 min, and then the incubation medium was aspirated. Afterwards, bidirectional transport experiments were conducted. Sal A solution of appropriate concentrations in HBSS (containing VC 1 0^−4 mol/L) were loaded to the donor compartments and the blank HBSS (containing VC 1 0^−4 mol/L) was added to the receiver compartments. Seven sequential samples (50 μL) were collected at different times (0, 30, 60, 90, 120, 150, 180 min) from the receiver side. The same volume of receiver medium was replaced after each sampling. The collected samples were added into tubes with 40 μL MeOH–H2O (50:50, v/v, containing VC 100 μg/mL). Then, 10 μL of the IS spiking solution (butyl paraben, 1 μg/mL) was added. After centrifugation at 13,400 rpm for 5 min, 20 μL of the supernatant was injected to the LC–MS system.
Influence of the stabilizer on the transport of Sal A has also been tested under the condition of different concentrations of VC. The samples were collected, treated and analyzed according to the same procedure.
The apparent permeability coefficient (Papp) was calculated according to the following equation: Papp=(ΔQ/Δt)/(A×C0) where ΔQ/Δt is the linear appearance rate of the tested compound in the receiver compartments, A is the surface area of the cell monolayer and C0 is the initial concentration of the tested compound in the donor side.

[3] = set-up: method as in Lai et al. [2011]; conditions: rats, salvianolic acid extract 800 mg/kg oral (Sal A 5.71% of mixture); ref Lai et al. [2011]; cited from earlier work
[4] = Caco-2, pH 7.4, Sal A 10^–4/3 mol/L, HBSS pH 7.4, VC 10^−4 mol/L
[5] = Caco-2, pH 7.4, Sal A 10^–4/9 mol/L, HBSS pH 7.4, VC 10^–4 mol/L
[6] = Caco-2, pH 7.4, Sal A 10^–4/9 mol/L, VC 10^–3/3 mol/L
[7] = Caco-2, pH 7.4, Sal A 10^–4/9 mol/L, VC 10^–3 mol/L
[8] = Caco-2, pH 7.4, Sal A 10^–4/27 mol/L, HBSS pH 7.4, VC 10^−4 mol/L

Structure (SMILES): O=C(/C=C/c1ccc(O)c(O)c1/C=C/c1ccc(O)c(O)c1)O[C@H](Cc1ccc(O)c(O)c1)C(=O)O [Sal A, Salvianolic acid A]
- MRT last ([1]; iv, 50 ug/kg, i.v. 50 µg/kg): 0.62 h
- Tmax ([1]; iv, 50 ug/kg, i.v. 50 µg/kg, read-out: Tmax): 0.08 h
- half-life ([1]; iv, 50 ug/kg, i.v. 50 µg/kg, read-out: t1/2 (converted)): 6.16 h
- AUC(0-t) ([1]; iv, 50 ug/kg, i.v. 50 µg/kg): 205 ng·h/mL
- Cmax ([1]; iv, 50 ug/kg, i.v. 50 µg/kg): 579 ng/mL
- bioavailability ([1]; po, 5 mg/kg, oral 5 mg/kg vs i.v. 50 µg/kg, AUCoral/dose divided by AUCiv/dose, read-out: F (oral bioavailability)): 0.52%
- Tmax ([1]; po, 5 mg/kg, oral 5 mg/kg, read-out: Tmax): 1 h
- half-life ([1]; po, 5 mg/kg, oral 5 mg/kg, read-out: t1/2 (converted)): 1.96 h
- bioavailability ([1]; po, 10 mg/kg, oral 10 mg/kg vs i.v. 50 µg/kg, read-out: F (oral bioavailability)): 0.41%
- Tmax ([1]; po, 10 mg/kg, oral 10 mg/kg, read-out: Tmax): 1 h
- half-life ([1]; po, 10 mg/kg, oral 10 mg/kg, read-out: t1/2 (converted)): 1.72 h
- bioavailability ([1]; po, 20 mg/kg, oral 20 mg/kg vs i.v. 50 µg/kg, read-out: F (oral bioavailability)): 0.39%
- Tmax ([1]; po, 20 mg/kg, oral 20 mg/kg, read-out: Tmax): 1 h
- half-life ([1]; po, 20 mg/kg, oral 20 mg/kg, read-out: t1/2 (converted)): 1.79 h
- bioavailability ([1]; po, 20 mg/kg, oral in pure form, over the doses 5, 10 and 20 mg/kg, read-out: absolute (oral) bioavailability): 0.39 to 0.52%
- half-life ([1]; po, 20 mg/kg, oral, over the doses 5, 10 and 20 mg/kg, read-out: half-life period (t1/2)): 1.72 to 1.96 h
- Tmax ([1]; po, oral, 5–20 mg/kg, read-out: time to peak concentration in plasma (Tmax)): ≤ 1 h
- MRT last ([1]; oral 5 mg/kg): 2.91 h
- AUC(0-t) ([1]; oral 5 mg/kg): 106 ng·h/mL
- Cmax ([1]; oral 5 mg/kg): 31.5 ng/mL
- MRT last ([1]; oral 10 mg/kg): 2.33 h
- AUC(0-t) ([1]; oral 10 mg/kg): 167 ng·h/mL
- Cmax ([1]; oral 10 mg/kg): 57.4 ng/mL
- MRT last ([1]; oral 20 mg/kg): 2.36 h
- AUC(0-t) ([1]; oral 20 mg/kg): 317 ng·h/mL
- Cmax ([1]; oral 20 mg/kg): 112 ng/mL
- Papp A→B at 180 min [2, 4]: 0.156 ± 0.0412 ×10⁻⁶ cm/s
- Papp B→A at 180 min [2, 4]: 0.508 ± 0.0118 ×10⁻⁶ cm/s
- Papp A→B at 180 min [2, 5]: 0.152 ± 0.0055 ×10⁻⁶ cm/s
- Papp B→A at 180 min [2, 5]: 0.605 ± 0.0175 ×10⁻⁶ cm/s
- Papp A→B at 180 min [2, 6]: 0.155 ± 0.003 ×10⁻⁶ cm/s
- Papp B→A at 180 min [2, 6]: 0.507 ± 0.087 ×10⁻⁶ cm/s
- Papp A→B at 180 min [2, 7]: 0.153 ± 0.0028 ×10⁻⁶ cm/s
- Papp B→A at 180 min [2, 7]: 0.478 ± 0.0453 ×10⁻⁶ cm/s
- Papp A→B at 180 min [2, 8]: 0.641 ± 0.0576 ×10⁻⁶ cm/s
- Papp B→A at 180 min [2, 8]: 0.987 ± 0.121 ×10⁻⁶ cm/s
- efflux ratio at 180 min ([2]; pH 7.4, Caco-2 monolayer, read-out: ratio of PB–A to PA–B (Papp basolateral to apical / apical to basolateral)): ~3
- absolute bioavailability of Sal A [3]: 2.5%
